Measurements published in patent US5196445A, “Heteroaryl-3-oxo-propanenitrile derivatives useful in the treatment of rheumatoid arthritis and other autoimmune diseases” (Farmitalia Carlo Erba Srl, priority 1989, dated 1993).
Read-outs that look alike come from different tables or passages of the source.

Experiments:
[1] = test system: adjuvant arthritis in rats; experiment: Mycobacterium smegmatis induced adjuvant arthritis in rats (contralateral/left hind paw oedema, systemic phase); assay type: in vivo, male Lewis rats; conditions: 10 mg/kg i.p.; for inhibition in vivo at 10 mg/kg: Mycolicibacterium smegmatis, ip, left hind paw oedema; for Oedema volume ± S.E., day 18 / Oedema volume ± S.E., day 21 / Oedema volume ± S.E., day 25: left hind paw, systemic phase
Description: Mycobacterium smegmatis induced adjuvant arthritis in rats Adjuvant arthritis is induced in groups of 10-30 male Lewis rats, weighing 150 g, by injecting 75 μg of M. smegmatis in 50 μl of mineral oil into the plantar surface of the right hind foot pad. The test compounds are administered at 10 mg/kg i.p.), 5 days a week for 4 weeks, starting on the same day of the mycobacterium injection. The volume of the controlateral (systematic phase) hind foot pad is measured pletismographically on days 18, 21 and 25.

[2] = approximate acute toxicity (LD50) in the mouse, per os, single administration of increasing doses; conditions: in vivo, po, measured on the seventh day after treatment
Excerpt: In view of their high biological activity and low toxicity the compounds of the invention can be safely used in medicine. For example, the approximate acute toxicity (LD50) in the mouse of the compounds 2-cyano-3-(1,4-dihydro-1-phenyl-[1]-benzopyrano[4,3-c]pyrazol-3-yl)-3-oxo- N-phenyl-propanamide, and 2-cyano-3-(1,4-dihydro-1-phenyl-[1]-benzothiopyrano[4,3-c]pyrazol-3-yl)-3- oxo-N-phenyl-propanamide, determined per os with single administration of increasing doses and measured on the seventh day after the day of treatment, is higher than 800 mg/kg. Analogous toxocity data have been found for the other compounds of the invention.

[3] = 432 h, Table 1, day 18, read-out: % inhibition vs. controls, day 18
[4] = 504 h, Table 1, day 21, read-out: % inhibition vs. controls, day 21
[5] = 600 h, Table 1, day 25, read-out: % inhibition vs. controls, day 25
[6] = 432 h, Table 2, day 18, read-out: % inhibition vs. controls, day 18
[7] = 504 h, Table 2, day 21, read-out: % inhibition vs. controls, day 21
[8] = 600 h, Table 2, day 25, read-out: % inhibition vs. controls, day 25

Structure (SMILES)	inhibition in vivo at 10 mg/kg [1, 3]	inhibition in vivo at 10 mg/kg [1, 4]	inhibition in vivo at 10 mg/kg [1, 5]	Oedema volume ± S.E., day 18 ([1]; Table 1, day 18)	Oedema volume ± S.E., day 21 ([1]; Table 1, day 21)	Oedema volume ± S.E., day 25 ([1]; Table 1, day 25)	inhibition in vivo at 10 mg/kg [1, 6]	inhibition in vivo at 10 mg/kg [1, 7]	inhibition in vivo at 10 mg/kg [1, 8]	Oedema volume ± S.E., day 18 ([1]; Table 2, day 18)	Oedema volume ± S.E., day 21 ([1]; Table 2, day 21)	Oedema volume ± S.E., day 25 ([1]; Table 2, day 25)	LD50 at 168 h [2]
N#CC(C(=O)Nc1ccccc1)C(=O)c1nn(-c2ccccc2)c2c1CCc1ccccc1-2 (centres unmarked) [FCE 25161, 2-cyano-3-(4,5-dihydro-1-phenyl-[1]-benz[g]indazol-3-yl)-3-oxo-N-phenyl-propanamide]	50%	49%	49%	665 ± 91 mm^3	675 ± 96 mm^3	685 ± 93 mm^3	–	–	–	–	–	–	–
N#CC(C(=O)Nc1ccccc1)C(=O)c1nn(-c2ccccc2)c2c1COc1ccccc1-2 (centres unmarked) [FCE 25158, 2-cyano-3-(1,4-dihydro-1-phenyl-[1]-benzopyrano[4,3-c]pyrazol-3-yl)-3-oxo-N-phenyl-propanamide]	–	–	–	–	–	–	30%	38%	41%	700 ± 198 mm^3	683 ± 174 mm^3	717 ± 182 mm^3	> 800 mg/kg
CC(C)(C)OC(=O)c1cccc2c1SCc1c(C(=O)C(C#N)C(=O)Nc3ccccc3)nn(-c3ccccc3)c1-2 (centres unmarked) [FCE 26674, 3-(6-tert-butoxycarbonyl-1,4-dihydro-1-phenyl-[1]-benzothiopyrano[4,3-c]pyrazol-3-yl)-2-cyano-3-oxo-N-phenyl-propanamide]	–	–	–	–	–	–	24%	40%	34%	757 ± 209 mm^3	662 ± 182 mm^3	812 ± 226 mm^3	–
N#CC(C(=O)NCc1ccccc1)C(=O)c1nn(-c2ccccc2)c2c1CSc1ccccc1-2 (centres unmarked) [FCE 25324, N-benzyl-2-cyano-3-(1,4-dihydro-1-phenyl-[1]-benzothiopyrano [4,3-c]pyrazol-3-yl)-3-oxo-propanamide]	51%	57%	60%	565 ± 72 mm^3	575 ± 97 mm^3	545 ± 78 mm^3	–	–	–	–	–	–	–
N#CC(C(=O)Nc1ccccc1)C(=O)c1nn(-c2ccccc2)c2c1Cc1ccccc1-2 (centres unmarked) [FCE 25276, 2-cyano-3-(1,4-dihydro-1-phenyl-indeno[1,2-c]pyrazol-3-yl)-3-oxo-N-phenyl-propanamide]	–	–	–	–	–	–	41%	47%	58%	587 ± 233 mm^3	587 ± 254 mm^3	512 ± 304 mm^3	–
N#CC(C(=O)Nc1ccccc1)C(=O)c1nn(-c2ccccc2)c2c1CSc1ccccc1-2 (centres unmarked) [FCE 24578, 2-cyano-3-(1,4-dihydro-1-phenyl-[1]-benzothiopyrano[4,3-c]pyrazol-3-yl)-3-oxo-N-phenyl-propanamide]	75%	65%	68%	310 ± 180 mm^3	470 ± 215 mm^3	460 ± 241 mm^3	–	–	–	–	–	–	> 800 mg/kg
N#CC(C(=O)Nc1ccc(F)cc1)C(=O)c1nn(-c2ccc(F)cc2)c2c1Cc1ccccc1-2 (centres unmarked) [FCE 26317, 2-cyano-N-(4-fluoro-phenyl)-3-[1-(4-fluoro-phenyl)-1,4-dihydro-indeno[1,2-c]pyrazol-3-yl]-3-oxo-propanamide]	–	–	–	–	–	–	37%	38%	44%	629 ± 347 mm^3	686 ± 393 mm^3	683 ± 417 mm^3	–
N#CC(C(=O)Nc1ccccc1)C(=O)c1nn(-c2ccccc2)c2c1Cc1ccc(F)cc1-2 (centres unmarked) [FCE 26676, 2-cyano-3-(7-fluoro-1,4-dihydro-1-phenyl-indeno[1,2-c]pyrazol-3-yl)-3-oxo-N-phenyl-propanamide]	–	–	–	–	–	–	65%	54%	50%	350 ± 127 mm^3	512 ± 203 mm^3	612 ± 225 mm^3	–
N#CC(C(=O)Nc1ccccc1)C(=O)c1nn(-c2ccccc2)c2c1Cc1c(CN3CCOCC3)cccc1-2 (centres unmarked) [FCE 26626, 2-cyano-3-(1,4-dihydro-5-morpholinomethyl-1-phenyl-indeno[1,2-c]pyrazol-3-yl)-3-oxo-N-phenyl-propanamide]	–	–	–	–	–	–	57%	47%	54%	425 ± 173 mm^3	587 ± 222 mm^3	562 ± 234 mm^3	–
